We go through two compounds from patent US7465559B2, “Method for calibrating antibiotic disk diffusion testing of microorganisms” (Bioscand AB, priority 2001, dated 2008).

Where only a bound is given, the exact number is not on record here.

The subject of assay [1] is E. coli. The assay is described as follows: disk diffusion test of E. coli against gentamicin, laboratory KS, SRGA methodology. The conditions noted are these: 10 μg gentamicin disk. In kind it is cell-based, Escherichia coli. How it is done:
(§1) Different types of susceptibility tests can be used to test the antimicrobic susceptibility of a microorganism. One type of susceptibility test is the disk diffusion test. This is a standardized test, in which a plate containing a growth medium in agar gel is inoculated with a microbial isolate and one or more disks impregnated with fixed concentrations of antibiotics are placed thereon. After appropriate incubation, the diameter of zones of inhibition around the disks (if present) are registered in order to determine the sensitivity of the inoculated microorganism to the particular antimicrobial agent impregnated in each disk.
(§2) In this example histograms of zone diameter values from disk test results for E. coli tested against the antibiotic gentamicin were analyzed according to the principle of normalized resistance interpretation. One laboratory (KS) used the SRGA (Swedish Reference Group for Antibiotics) methodology and a disk content of 10 μg gentamicin, whereas the other laboratory on a different continent (AR, a clinical microbiology laboratory in South America) used the NCCLS (National Committee for Clinical Laboratory Standards) standardization and a 5 μg gentamicin disk.
(§3) The different methods used result in different positionings of the major, susceptible populations of strains (FIG. 5). […]

In assay [2] the test system is E. coli. The assay is described as follows: disk diffusion test of E. coli against gentamicin, laboratory AR (South America), NCCLS standardization. In kind it is cell-based, Escherichia coli. The conditions noted are these: 5 μg gentamicin disk. How it is done: as §1, §2, §3
Assay [3] has as its system Escherichia coli isolates. Briefly: disk diffusion test of Escherichia coli clinical isolates against norfloxacin, Karolinska hospital, zone diameter histograms 1988 and 1999. In kind it is cell-based. Here is the method:
as §1
The microbial species to be tested can be any cultivable microorganism, such as a bacterial species or a fungal species. In order to obtain species-related and laboratory-related interpretive breakpoints, a histogram of for example clinical isolates can be used. The method is especially suitable for analyzing inhibition zone diameters from disk diffusion tests with clinical isolates from a bacterial species, which may contain resistant strains against an antibiotic. Thus, no outliers are excluded. The number of isolates or percent isolates are plotted on the y-axis and the growth inhibition zone diameter values from paper disks impregnated with the antibiotic are plotted on the x-axis. When the method of O'Brien et al. (J. Am. Med. Assoc. 210:84, 1969) is used, histograms are obtained with percent isolates on the y-axis and zone diameter values from 6 mm (paper disk diameter) to 60 mm on the x-axis. However, the inventive method is equally well adapted for a microdilution tests, the concentration data being minimal inhibitory concentrations. All data can be computerized.
It can be seen that the zone diameter values for these clinical isolates cluster around 29-30 mm with a distribution of ±8 mm.
The results from 1988 in FIG. 1 were compared with similar results eleven years later (FIG. 2). In this histogram a number of isolates now appear, which have inhibition zones all the way down to no zone, the size of the 6 mm disk. The comparison was accomplished by means of computer analysis according to the inventive method for calibrating antimicrobic susceptibility testings of microorganisms.
First, the slope downwards was tracked and the shift to decreasing values at the peak position identified by comparing sliding means (each based on two zone diameter figures). Then, the percentages of the isolates of the upper half of the population were determined and converted to probit values. A regression using the least squares method was then performed and the theoretical percentages for the whole population calculated.
In this calculation, it is assumed that 3 SD below the mean includes 99.86 percent of the normally susceptible strains in this group. A suitable limit for susceptibility interpretation and comparative analysis of antimicrobic resistance could then be defined as three times the standard deviation below the mean value.

Regarding gentamicin, the “R-limit for resistance (normalized zone breakpoint)” value in assay [1] was under 21 mm; in assay [2], under 17 mm.
As to `CCn1cc(C(=O)O)c(=O)c2cc(F)c(N3CCNCC3)cc21` [norfloxacin], the “mean value of inhibition zone diameters, customary statistical procedure” value in assay [3] (1988, 3756 isolates, disk 10 μg, SD 3.22) was found to be 29.16 mm; in assay [3] (eleven years later (1999), all 5944 isolates, SD 7.39), 28.24 mm. In addition, the “mean of normalized Gaussian distribution of theoretical normal population” value was found to be 29.27 mm in assay [3] (1988, 3756 isolates, disk 10 μg, SD 3.25) and 30.49 mm in assay [3] (eleven years later (1999), 5944 isolates, SD 3.22). For the same compound, the “zone diameter values of clinical isolates cluster around” value in assay [3] (1988 histogram, disk content 10 μg, distribution ±8 mm) is 29-30 mm. In addition, the “limit for resistance (zone breakpoint, 3 SD below normalized mean)” value in assay [3] (1988 population) amounted to 19 mm; in assay [3] (1999 population), 20 mm. The “percent resistance of isolates” value in assay [3] (1988 population, limit 19 mm) came out at 0.56%; in assay [3] (1999 population, limit 20 mm), 10.8%.
